{"source": "paper PMC12281475", "about": "“Mediator Kinase Inhibitor Selectivity and Activity in Colorectal Cancer” (ACS Chemical Biology, 2025)", "system": "COLO205 cells", "assay": "Phospho-proteome profiling (CDK-motif antibody enrichment, LC-MS/MS)", "assay_type": "cell-based, human", "conditions": "6 H", "excerpt": "We phospho-proteome profiled COLO205 cells to identify Mediator kinase substrates following chemical inhibition of Mediator kinase activity. Given the confirmed CDK8/19 selectivity of our compounds in binding and enzymatic activity assays, we employed a pool of antibodies selective for the proline-rich motifs phosphorylated by the CDK family to enrich potential CDK8/19 substrates for LC-MS/MS analysis.\nAdherent COLO205 cells were lysed with a urea buffer, lysates were reduced with DTT, alkylated with iodoacetimide and digested with trypsin-tosylphenylalanyl chloromethyl ketone. Digested peptides were immunoprecipitated using a pool of motif antibodies from Cell Signaling Technologies (US) comprising: phospho-MAPK substrate (PXS*P or S*PXR/K, #2325, RRID:AB_331820), phospho-CDKs substrate ((K/H)-S*P, #2324; RRID:AB_2244779), phospho-PLK binding motif (ST*P, #5243; RRID:AB_10891778) and phospho-tPE motif (T*PE, #3004; RRID:AB_10890649)-of phospho-MAPK (2325), phospho-CDK (2324), phospho-PLK (5243) and phospho-tPE (C3004) motif-recognizing antibodies immobilized onto protein A/G beads. Immunoprecipitated peptides were analyzed using an LTQ-Orbitrap-Velos. Sequences were assigned to the MS/MS spectra and evaluated using SEQUEST 3G and SORCERER 2 (Sage-N Research v4.0, Milpitas). Quantitative data was evaluated and clustered in Spotfire Decision Site (www.spotfire.tibco.com) and normalized using quartile normalization. Functional annotation and pathway analysis used DAVID (https://david.ncifcrf.gov/). […]\nPhospho-proteome analyses\nAdherent COLO205 cells were washed with PBS and cells lysed using urea lysis buffer (9 M Urea, 20 mM HEPES, pH 8.0, 1 mM beta-glycerophosphate, 1 mM sodium vanadate, 2.5 mM sodium pyrophosphate) and stored at -80 °C prior to analysis. The supernatants were reduced with 100 mM DTT for 30 minutes at 55 °C, followed by alkylation with 50 mM iodoacetimide for 15 minutes at ambient temperature in the dark.\nThe samples were diluted in 20 mM HEPES, pH 8.0 and digested overnight with 10 ug/mL trypsin-tosylphenylalanyl chloromethyl ketone in 1 mM HCl. Digested peptides were acidified with 1% formic acid and then desalted over 360-mg SEP PAK C18 columns (Waters, UK). Peptides were eluted with 40% acetonitrile in 0.125% formic acid, dried under a vacuum and the lyophilised peptides used for immunoprecipitation.\nA pool of motif antibodies from Cell Signaling Technologies (US) comprising: phospho-MAPK substrate (PXS*P or S*PXR/K, #2325, RRID:AB_331820), phospho-CDKs substrate ((K/H)S*P, #2324; RRID:AB_2244779), phospho-PLK binding motif (ST*P, […]\nRRID:AB_10890649), were immobilised onto protein A/G beads overnight at 4 °C. The lyophilised peptides were resuspended in MOPS buffer (50 mM MOPS, pH 7.2, 10 mM KH2PO4, 50 mM NaCl) and centrifuged for 5 mins at 13,500 rpm in an Eppendorf benchtop microcentrifuge. The supernatants were incubated with the motif-bound beads for 2.5 hours at 4 °C . The beads were harvested by centrifugation at 4000 rpm in an Eppendorf benchtop microcentrifuge for 5 mins, washed with MOPS buffer twice and washed again 5 times with deionised water. The peptides were eluted off the beads using 0.125% formic acid, were desalted and dried under a vacuum. The lyophilised immunoprecipitated peptides were resuspended in 0.125% formic acid and separated on a capillary column packed with Magic C18 AQ reversed-phase resin.\nPeptides were eluted using a 72-minute linear gradient of acetonitrile in 0.125% formic acid delivered at 280nL/min. Samples were analysed using an LTQ-Orbitrap-Velos.\nMS Parameter Settings were: MS Run Time 96 min, MS1 Scan Range (300.0 – 1500.00), Top 20 MS/MS (Min Signal 500, Isolation Width 2.0, Normalized Coll.\nCharge State Rejection Enabled, Charge State 1+ Rejected, Dynamic Exclusion Enabled, Repeat Count 1, Repeat Duration 35.0, Exclusion List Size 500, Exclusion Duration 40.0, Exclusion Mass Width Relative to Mass, Exclusion Mass Width 10ppm). […]", "key": {"[1]": {"conditions": "FAM122A peptide 69 - hglllpaSpvr - 79"}, "[2]": {"conditions": "FBLIM1 peptide 40 - grpweapapmkTpeaglagrpspwttpgr - 68"}, "[3]": {"conditions": "FBXW9 peptide 43 - sglafsrpsqlsTpaaSpSasepr - 66"}, "[4]": {"conditions": "FBXW9 peptide 48 - srpsqlStpaaSpsasepr - 66"}, "[5]": {"conditions": "FOSL1 peptide 235 - ftypStpepcasahr - 249"}, "[6]": {"conditions": "GATA6 peptide 26 - afparepStppSpisssssscsr - 48"}, "[7]": {"conditions": "GOLGA4 peptide 7 - qkiseeqqqlqqalapaqassnSStptrm#rsr - 39"}, "[8]": {"conditions": "HCFC1 peptide 1483 - avttvtqSTpvpgpsvpppeelqvSpgpr - 1511"}, "[9]": {"conditions": "HMCES peptide 152 - sgsigaadSpenwek - 166"}, "[10]": {"conditions": "HSPA12A peptide 99 - tpttillTper - 109"}, "[11]": {"conditions": "INCENP peptide 259 - iaqvSpgprdSpafpdSpwrer - 280"}, "[12]": {"conditions": "KANSL1 peptide 955 - ttpqlgSanpSTpqpaSpdvssshslseyShgqSpr - 989"}, "[13]": {"conditions": "KIAA1522 peptide 509/569 - rpprSper - 517/576"}, "[14]": {"conditions": "KLF6 peptide 140 - lsssvtStppsSpelsrepsqlwgcvpgelpSpgkvr - 176"}, "[15]": {"conditions": "KMT2A peptide 3025 - nssTpglqvpvsptvpiqnqk - 3045"}, "[16]": {"conditions": "L3MBTL2 peptide 60 - eagelpTSplhllSpgTpr - 78"}, "[17]": {"conditions": "LARP4B peptide 725 - rlSreqSTppkSpq - 738"}, "[18]": {"conditions": "LASP1 peptide 60 - qsftmvadTpenlr - 73"}, "[19]": {"conditions": "LCOR peptide 1212 - arpstkTpessaaqr - 1226"}, "[20]": {"conditions": "LIMD1 peptide 190 - wgdkpgvSpSiglsvgsgwpSspgsdpplpkpcgdhplnhr - 230"}, "[21]": {"conditions": "LMNA peptide 12 - sgaqaSstplSptr - 25"}, "[22]": {"conditions": "LMO7 peptide 595/929 - YngdvedikrTpnnvvSTpapSpdasqlasslssqk - 630/964"}, "[23]": {"conditions": "LSM14B peptide 85 - aqhtlpqdpaivqsslgsasaSpfqphvpYSpfr - 118"}, "[24]": {"conditions": "MAP7 peptide 668 - vtvesTpdlekqpnengvsvqnenfeeiinlpigskpsr - 706"}, "[25]": {"conditions": "MCM4 peptide 38 - rgedststgelqpmptSpgvdlqSpaaqdvl - 68"}}}
{"smiles": "Cn1cc(-c2ccc(-c3cncc(Cl)c3N3CCC4(CCNC4=O)CC3)cc2)cn1", "note": "[CCT251545]", "values": [{"measurement": "MEAN MS SIGNAL CMPD 1 6 H", "setting": "EZH2 peptide 46 - grlpnnssrpstpTinvlesk - 376", "result": 31995}, {"measurement": "CMPD 1/DMSO", "setting": "[1]", "result": 2.184}, {"measurement": "MEAN MS SIGNAL CMPD 1 6 H", "setting": "[1]", "result": 196079}, {"measurement": "CMPD 1/DMSO", "setting": "[2]", "result": 0.573}, {"measurement": "MEAN MS SIGNAL CMPD 1 6 H", "setting": "[2]", "result": 86595}, {"measurement": "CMPD 1/DMSO", "setting": "[3]", "result": 0.530}, {"measurement": "MEAN MS SIGNAL CMPD 1 6 H", "setting": "[3]", "result": 311610}, {"measurement": "CMPD 1/DMSO", "setting": "[4]", "result": 0.400}, {"measurement": "MEAN MS SIGNAL CMPD 1 6 H", "setting": "[4]", "result": 48006}, {"measurement": "CMPD 1/DMSO", "setting": "[5]", "result": 0.504}, {"measurement": "MEAN MS SIGNAL CMPD 1 6 H", "setting": "[5]", "result": 66830}, {"measurement": "CMPD 1/DMSO", "setting": "[6]", "result": 2.355}, {"measurement": "MEAN MS SIGNAL CMPD 1 6 H", "setting": "[6]", "result": 187382}, {"measurement": "CMPD 1/DMSO", "setting": "[7]", "result": 2.322}, {"measurement": "MEAN MS SIGNAL CMPD 1 6 H", "setting": "[7]", "result": 104624}, {"measurement": "CMPD 1/DMSO", "setting": "[8]", "result": 0.405}, {"measurement": "MEAN MS SIGNAL CMPD 1 6 H", "setting": "[8]", "result": 16700}, {"measurement": "CMPD 1/DMSO", "setting": "[9]", "result": 0.453}, {"measurement": "MEAN MS SIGNAL CMPD 1 6 H", "setting": "[9]", "result": 63819}, {"measurement": "CMPD 1/DMSO", "setting": "[10]", "result": 0.556}, {"measurement": "MEAN MS SIGNAL CMPD 1 6 H", "setting": "[10]", "result": 24367}, {"measurement": "CMPD 1/DMSO", "setting": "[11]", "result": 0.465}, {"measurement": "MEAN MS SIGNAL CMPD 1 6 H", "setting": "[11]", "result": 323217}, {"measurement": "CMPD 1/DMSO", "setting": "[12]", "result": 0.484}, {"measurement": "MEAN MS SIGNAL CMPD 1 6 H", "setting": "[12]", "result": 12101}, {"measurement": "CMPD 1/DMSO", "setting": "[13]", "result": 1.797}, {"measurement": "MEAN MS SIGNAL CMPD 1 6 H", "setting": "[13]", "result": 115710}, {"measurement": "CMPD 1/DMSO", "setting": "[14]", "result": 0.607}, {"measurement": "MEAN MS SIGNAL CMPD 1 6 H", "setting": "[14]", "result": 32118}, {"measurement": "CMPD 1/DMSO", "setting": "[15]", "result": 2.063}, {"measurement": "MEAN MS SIGNAL CMPD 1 6 H", "setting": "[15]", "result": 28229}, {"measurement": "CMPD 1/DMSO", "setting": "[16]", "result": 0.490}, {"measurement": "MEAN MS SIGNAL CMPD 1 6 H", "setting": "[16]", "result": 91427}, {"measurement": "CMPD 1/DMSO", "setting": "[17]", "result": 2.299}, {"measurement": "MEAN MS SIGNAL CMPD 1 6 H", "setting": "[17]", "result": 120169}, {"measurement": "CMPD 1/DMSO", "setting": "[18]", "result": 0.584}, {"measurement": "MEAN MS SIGNAL CMPD 1 6 H", "setting": "[18]", "result": 786663}, {"measurement": "CMPD 1/DMSO", "setting": "[19]", "result": 0.545}, {"measurement": "MEAN MS SIGNAL CMPD 1 6 H", "setting": "[19]", "result": 120796}, {"measurement": "CMPD 1/DMSO", "setting": "[20]", "result": 0.471}, {"measurement": "MEAN MS SIGNAL CMPD 1 6 H", "setting": "[20]", "result": 25519}, {"measurement": "CMPD 1/DMSO", "setting": "[21]", "result": 0.517}, {"measurement": "MEAN MS SIGNAL CMPD 1 6 H", "setting": "[21]", "result": 46469}, {"measurement": "CMPD 1/DMSO", "setting": "[22]", "result": 0.463}, {"measurement": "MEAN MS SIGNAL CMPD 1 6 H", "setting": "[22]", "result": 25654}, {"measurement": "CMPD 1/DMSO", "setting": "[23]", "result": 0.523}, {"measurement": "MEAN MS SIGNAL CMPD 1 6 H", "setting": "[23]", "result": 38083}, {"measurement": "CMPD 1/DMSO", "setting": "[24]", "result": 0.544}, {"measurement": "MEAN MS SIGNAL CMPD 1 6 H", "setting": "[24]", "result": 159179}, {"measurement": "CMPD 1/DMSO", "setting": "[25]", "result": 0.432}, {"measurement": "MEAN MS SIGNAL CMPD 1 6 H", "setting": "[25]", "result": 77526}, {"measurement": "CMPD 1/DMSO", "setting": "MCM4 peptide 69 - fSsppqmhssaipldfdvSsplTygtpssr - 98", "result": 0.605}]}
